{"source": "paper PMC8746970", "about": "“Determination of the Peptide AWRK6 in Rat Plasma by Liquid Chromatography-Tandem Mass Spectrometry (LC-MS/MS) and Its Application to Pharmacokinetics” (Molecules, 2021)", "assay": "Stability of AWRK6 QC samples in rat plasma under storage conditions", "type": "in vitro ADME", "conditions": "for measured concentration of QC sample after storage / relative error of QC sample after storage: rat plasma QC, LC-MS/MS, n = 3; for measured concentration of QC sample after storage: mean ± SD", "description": "The AWRK6 and IS were dissolved in water at 1.0 mg/mL for stock solution. The AWRK6 calibration standards at 0.05, 0.1, 0.5, 1, 2, 5, and 10 μg/mL were prepared by mixing 50 μL of working solution and 100 μL of blank plasma individually. QC samples of AWRK6 at 0.1, 0.5, and 5 μg/mL were prepared by the same method. The thawed plasma samples (100 μL) were mixed with 50 μL water (or QC), 50 μL IS (1 μg/mL), and 20 μL FA-water (25:75, v/v). A combination of plasma precipitation and liquid–liquid extraction was applied for the extraction of AWRK6 in samples. After adding 200 μL methanol and 100 μL dichloromethane, the mixtures were vortexed for 30 s and centrifuged at 14,000 g for 10 min. The supernatant was filtered by 0.22 μm membrane for LC-MS/MS analysis.\nThe method was validated for specificity, linearity, LOD, LOQ, LLOQ, precision, accuracy, recovery, matrix effect, and stability according to U.S. FDA guidelines. Specificity was determined using blank plasma samples from 6 rats. Linearity was accessed using calibration standards in triplicate within 3 consecutive days. LOD and LOQ were estimated as concentrations of AWRK6 which generated S/N value of 3 or 10, and they were verified by continuous evaluating the S/N value of 3 LOD samples or 6 LOQ samples. LLOQ was determined using 6 calibration standard samples at 0.05 μg/mL. Precision and accuracy were accessed using QC samples and repeated 6 times within 3 consecutive days. Recovery was calculated by comparing the respective peak areas of the QC samples with the blank plasma samples spiked after extraction (repeated 6 times). Matrix effect was evaluated by comparing the respective peak areas of the QC samples with standard solutions (AWRK6 and IS in water, respectively) at the same concentrations (repeated 6 times). Stability was analyzed using QC samples under different storage conditions including room temperature for 6 h, 3 freeze–thaw cycles, 4 °C for 12 h, and−20 °C for 7 days.", "key": {"[1]": {"conditions": "nominal 0.100 μg/mL, room temperature for 6 h"}, "[2]": {"conditions": "nominal 0.100 μg/mL, storage at 4 °C for 12 h"}, "[3]": {"conditions": "nominal 0.100 μg/mL, storage at −20 °C for 7 days"}, "[4]": {"conditions": "nominal 0.100 μg/mL, three freeze–thaw cycles"}, "[5]": {"conditions": "nominal 0.500 μg/mL, room temperature for 6 h"}, "[6]": {"conditions": "nominal 0.500 μg/mL, storage at 4 °C for 12 h"}, "[7]": {"conditions": "nominal 0.500 μg/mL, storage at −20 °C for 7 days"}, "[8]": {"conditions": "nominal 0.500 μg/mL, three freeze–thaw cycles"}, "[9]": {"conditions": "nominal 5.000 μg/mL, storage at 4 °C for 12 h"}, "[10]": {"conditions": "nominal 5.000 μg/mL, storage at −20 °C for 7 days"}, "[11]": {"conditions": "nominal 5.000 μg/mL, three freeze–thaw cycles"}}, "note": "No end group written: not given here.", "data": [{"substance": "SWVGKHGKKFGLKKHKKH-NH2 (C-terminus assumed) [AWRK6]", "values": [{"measurement": "relative error of QC samples (stability acceptable)", "setting": "rat plasma QC 0.1, 0.5, 5 μg/mL, room temperature for 6 h, 3 freeze–thaw cycles, and 4 °C for 12 h", "value": "< 12", "unit": "%"}, {"measurement": "relative error of QC samples (significant degradation)", "setting": "rat plasma QC 0.1, 0.5, 5 μg/mL, storage at −20 °C for 7 days", "value": "−16.94 to −34.74", "unit": "%"}, {"measurement": "measured concentration of QC sample after storage", "setting": "[1]", "value": "0.089 ± 0.007", "unit": "µg/mL"}, {"measurement": "relative error of QC sample after storage", "setting": "[1]", "value": "−6.315", "unit": "%"}, {"measurement": "measured concentration of QC sample after storage", "setting": "[2]", "value": "0.084 ± 0.013", "unit": "µg/mL"}, {"measurement": "relative error of QC sample after storage", "setting": "[2]", "value": "−11.579", "unit": "%"}, {"measurement": "measured concentration of QC sample after storage", "setting": "[3]", "value": "0.062 ± 0.018", "unit": "µg/mL"}, {"measurement": "relative error of QC sample after storage", "setting": "[3]", "value": "−34.737", "unit": "%"}, {"measurement": "measured concentration of QC sample after storage", "setting": "[4]", "value": "0.091 ± 0.008", "unit": "µg/mL"}, {"measurement": "relative error of QC sample after storage", "setting": "[4]", "value": "−4.210", "unit": "%"}, {"measurement": "measured concentration of QC sample after storage", "setting": "[5]", "value": "0.462 ± 0.021", "unit": "µg/mL"}, {"measurement": "relative error of QC sample after storage", "setting": "[5]", "value": "−4.742", "unit": "%"}, {"measurement": "measured concentration of QC sample after storage", "setting": "[6]", "value": "0.442 ± 0.015", "unit": "µg/mL"}, {"measurement": "relative error of QC sample after storage", "setting": "[6]", "value": "−8.866", "unit": "%"}, {"measurement": "measured concentration of QC sample after storage", "setting": "[7]", "value": "0.387 ± 0.047", "unit": "µg/mL"}, {"measurement": "relative error of QC sample after storage", "setting": "[7]", "value": "−20.206", "unit": "%"}, {"measurement": "measured concentration of QC sample after storage", "setting": "[8]", "value": "0.477 ± 0.016", "unit": "µg/mL"}, {"measurement": "relative error of QC sample after storage", "setting": "[8]", "value": "−1.649", "unit": "%"}, {"measurement": "measured concentration of QC sample after storage", "setting": "[9]", "value": "4.881 ± 0.301", "unit": "µg/mL"}, {"measurement": "relative error of QC sample after storage", "setting": "[9]", "value": "−1.040", "unit": "%"}, {"measurement": "measured concentration of QC sample after storage", "setting": "[10]", "value": "4.153 ± 0.442", "unit": "µg/mL"}, {"measurement": "relative error of QC sample after storage", "setting": "[10]", "value": "−16.940", "unit": "%"}, {"measurement": "measured concentration of QC sample after storage", "setting": "[11]", "value": "4.912 ± 0.049", "unit": "µg/mL"}, {"measurement": "relative error of QC sample after storage", "setting": "[11]", "value": "−0.409", "unit": "%"}]}]}
